Experimental findings from article PMC10104807, “Modulation of tau tubulin kinases (TTBK1 and TTBK2) impacts ciliogenesis” (Scientific Reports, 2023) are described below.

What all share (assay): DiscoverX scanMAX binding assay
Holding throughout (settings): 1 μM

In assay [1] the target is T1, MAP4K5 (Homo sapiens, UniProt Q9Y4K4).
T1 construct: purchased Eurofins
The method in brief: (§1)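 Values are percent of control (PoC) from a kinase binding assay, obtained with test compound at 1 µM against a panel of 403 wild-type human kinases.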

In assay [2] the target is T2, RIPK5 (Homo sapiens, UniProt Q6XUX3).
T2 construct: purchased Eurofins (radiometric) / Eurofins DiscoverX scanMAX / Reaction Biology / SignalChem
In a few lines: as §1

In assay [3] the target is T3, CDK11 (Homo sapiens, UniProt Q9BWU1).
T3 construct: purchased Eurofins (radiometric) / Eurofins DiscoverX scanMAX / Reaction Biology / SignalChem
The method in brief:
as §1

The target of assay [4] is T4, CDK8 (Homo sapiens, UniProt P49336).
T4 construct: purchased Eurofins (radiometric) / Eurofins DiscoverX scanMAX / Reaction Biology / SignalChem
In a few lines:
as §1

Assay [5] concerns the target T5, CHEK2 (Homo sapiens, UniProt O96017).
T5 construct: purchased Eurofins (radiometric) / Eurofins DiscoverX scanMAX / Reaction Biology / SignalChem
In a few lines:
as §1

Assay [6] concerns the target T6, CSNK1E (Homo sapiens, UniProt P49674).
T6 construct: purchased Eurofins (radiometric) / Eurofins DiscoverX scanMAX / Reaction Biology / SignalChem
The method in brief: as §1

Assay [7] concerns the target T7, HASPIN (Homo sapiens, UniProt Q8TF76).
T7 construct: purchased Eurofins (radiometric) / Eurofins DiscoverX scanMAX / Reaction Biology / SignalChem
In a few lines: as §1

Assay [8] has as its target T8, AURKB (Homo sapiens, UniProt Q96GD4).
T8 construct: purchased Eurofins (radiometric) / Eurofins DiscoverX scanMAX / Reaction Biology / SignalChem
The method in brief: as §1

The target in assay [9] is T9, BRAF(V600E) (Homo sapiens, UniProt P15056, V600E).
T9 construct: purchased Eurofins (radiometric) / Eurofins DiscoverX scanMAX / Reaction Biology / SignalChem

Assay [10] concerns the target T10, CDC2L1 (Homo sapiens, UniProt P21127).
T10 construct: purchased Eurofins (radiometric) / Eurofins DiscoverX scanMAX / Reaction Biology / SignalChem
The method in brief:
as §1

Assay [11] deals with T11, CDC2L2 (Homo sapiens, UniProt Q9UQ88).
T11 construct: purchased Eurofins (radiometric) / Eurofins DiscoverX scanMAX / Reaction Biology / SignalChem
In a few lines: as §1

Assay [12] deals with T12, GRK2 (Homo sapiens, UniProt P25098).
T12 construct: purchased Eurofins (radiometric) / Eurofins DiscoverX scanMAX / Reaction Biology / SignalChem
In a few lines: as §1

For assay [13], the target named is T13, HIPK1 (Homo sapiens, UniProt Q86Z02).
T13 construct: purchased Eurofins (radiometric) / Eurofins DiscoverX scanMAX / Reaction Biology / SignalChem
In a few lines: as §1

The target in assay [14] is T14, JAK3(JH1domain-catalytic) (Homo sapiens, UniProt P52333).
T14 construct: JAK3(JH1domain-catalytic); purchased Eurofins (radiometric) / Eurofins DiscoverX scanMAX / Reaction Biology / SignalChem
The method in brief: as §1

In assay [15] the target is T15, NIK (Homo sapiens, UniProt Q99558).
T15 construct: purchased Eurofins (radiometric) / Eurofins DiscoverX scanMAX / Reaction Biology / SignalChem
The method in brief: as §1

Assay [16] deals with T16, PFCDPK1(P.falciparum) (Plasmodium falciparum, UniProt P62344).
T16 construct: purchased Eurofins (radiometric) / Eurofins DiscoverX scanMAX / Reaction Biology / SignalChem
In a few lines:
as §1

The target in assay [17] is T17, PRKD2 (Homo sapiens, UniProt Q9BZL6).
T17 construct: purchased Eurofins (radiometric) / Eurofins DiscoverX scanMAX / Reaction Biology / SignalChem
In a few lines: as §1

Assay [18] has as its target T18, PRKD3 (Homo sapiens, UniProt O94806).
T18 construct: purchased Eurofins (radiometric) / Eurofins DiscoverX scanMAX / Reaction Biology / SignalChem
The method in brief:
as §1

Assay [19] has as its target T19, RPS6KA5(Kin.Dom.2-C-terminal) (Homo sapiens, UniProt O75582).
T19 construct: RPS6KA5(Kin.Dom.2-C-terminal); purchased Eurofins (radiometric) / Eurofins DiscoverX scanMAX / Reaction Biology / SignalChem
The method in brief:
as §1

Assay [20] deals with T20, SNARK (Homo sapiens, UniProt Q9H093).
T20 construct: purchased Eurofins (radiometric) / Eurofins DiscoverX scanMAX / Reaction Biology / SignalChem
In a few lines:
as §1

Assay [21] deals with T21, TSSK3 (Homo sapiens, UniProt Q96PN8).
T21 construct: purchased Eurofins
T21 sequence (Q96PN8 1-268): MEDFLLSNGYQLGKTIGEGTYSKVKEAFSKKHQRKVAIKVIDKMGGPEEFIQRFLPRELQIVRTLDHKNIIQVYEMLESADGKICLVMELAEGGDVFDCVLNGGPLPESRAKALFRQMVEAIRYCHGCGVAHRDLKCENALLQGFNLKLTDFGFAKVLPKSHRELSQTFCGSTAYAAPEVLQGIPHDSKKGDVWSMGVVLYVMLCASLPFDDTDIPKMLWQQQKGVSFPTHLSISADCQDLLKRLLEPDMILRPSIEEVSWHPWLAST
In a few lines:
as §1

Assay [22] concerns the target T22, TYK2(JH1domain-catalytic) (Homo sapiens, UniProt P29597).
T22 construct: TYK2(JH1domain-catalytic); purchased Eurofins (radiometric) / Eurofins DiscoverX scanMAX / Reaction Biology / SignalChem
In a few lines:
as §1

Structures are written as SMILES.

T3 sequence (Q9BWU1 whole entry): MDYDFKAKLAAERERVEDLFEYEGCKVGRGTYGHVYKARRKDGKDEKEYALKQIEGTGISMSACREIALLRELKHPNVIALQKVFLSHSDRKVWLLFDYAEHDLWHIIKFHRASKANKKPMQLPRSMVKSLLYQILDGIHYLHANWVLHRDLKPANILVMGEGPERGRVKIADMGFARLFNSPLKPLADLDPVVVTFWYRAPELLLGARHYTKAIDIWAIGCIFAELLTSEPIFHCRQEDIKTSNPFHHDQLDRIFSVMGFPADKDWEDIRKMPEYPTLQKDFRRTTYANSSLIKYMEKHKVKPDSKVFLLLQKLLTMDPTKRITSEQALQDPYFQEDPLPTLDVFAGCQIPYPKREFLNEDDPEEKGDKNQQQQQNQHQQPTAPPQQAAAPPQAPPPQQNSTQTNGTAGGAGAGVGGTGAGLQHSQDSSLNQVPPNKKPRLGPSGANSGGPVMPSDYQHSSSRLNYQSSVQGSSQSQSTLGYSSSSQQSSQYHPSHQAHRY
T8 sequence (Q96GD4 whole entry): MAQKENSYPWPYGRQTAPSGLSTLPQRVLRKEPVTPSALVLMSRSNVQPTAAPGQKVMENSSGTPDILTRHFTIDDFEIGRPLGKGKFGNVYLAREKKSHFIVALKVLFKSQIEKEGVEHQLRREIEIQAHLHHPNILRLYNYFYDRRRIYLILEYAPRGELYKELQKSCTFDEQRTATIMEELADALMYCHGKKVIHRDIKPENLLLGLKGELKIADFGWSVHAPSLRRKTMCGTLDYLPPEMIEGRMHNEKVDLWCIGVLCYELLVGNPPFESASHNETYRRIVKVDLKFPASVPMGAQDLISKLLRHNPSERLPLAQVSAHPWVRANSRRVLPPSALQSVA
T18 sequence (O94806 whole entry): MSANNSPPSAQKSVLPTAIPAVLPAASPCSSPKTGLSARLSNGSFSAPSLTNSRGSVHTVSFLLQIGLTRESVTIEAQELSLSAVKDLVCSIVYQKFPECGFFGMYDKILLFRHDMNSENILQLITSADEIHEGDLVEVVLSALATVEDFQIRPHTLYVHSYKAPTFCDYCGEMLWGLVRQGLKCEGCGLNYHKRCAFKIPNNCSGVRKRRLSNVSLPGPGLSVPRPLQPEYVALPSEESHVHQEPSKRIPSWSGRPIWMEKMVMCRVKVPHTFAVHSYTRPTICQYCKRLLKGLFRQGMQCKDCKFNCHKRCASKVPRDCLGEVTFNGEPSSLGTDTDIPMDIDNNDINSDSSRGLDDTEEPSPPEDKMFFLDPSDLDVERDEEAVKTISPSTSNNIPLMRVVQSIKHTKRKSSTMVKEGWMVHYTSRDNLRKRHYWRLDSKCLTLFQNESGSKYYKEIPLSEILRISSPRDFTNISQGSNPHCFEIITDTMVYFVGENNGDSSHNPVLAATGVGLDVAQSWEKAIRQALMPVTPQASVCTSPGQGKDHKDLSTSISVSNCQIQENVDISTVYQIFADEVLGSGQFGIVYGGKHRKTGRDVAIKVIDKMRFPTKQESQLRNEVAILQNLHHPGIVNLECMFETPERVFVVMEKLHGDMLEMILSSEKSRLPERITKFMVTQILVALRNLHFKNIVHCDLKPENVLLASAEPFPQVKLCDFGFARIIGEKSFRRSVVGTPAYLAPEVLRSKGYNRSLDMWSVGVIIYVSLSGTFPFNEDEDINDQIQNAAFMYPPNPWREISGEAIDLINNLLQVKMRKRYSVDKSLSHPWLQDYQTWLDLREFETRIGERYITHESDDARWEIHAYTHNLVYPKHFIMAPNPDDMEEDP
T2 sequence (Q6XUX3 whole entry): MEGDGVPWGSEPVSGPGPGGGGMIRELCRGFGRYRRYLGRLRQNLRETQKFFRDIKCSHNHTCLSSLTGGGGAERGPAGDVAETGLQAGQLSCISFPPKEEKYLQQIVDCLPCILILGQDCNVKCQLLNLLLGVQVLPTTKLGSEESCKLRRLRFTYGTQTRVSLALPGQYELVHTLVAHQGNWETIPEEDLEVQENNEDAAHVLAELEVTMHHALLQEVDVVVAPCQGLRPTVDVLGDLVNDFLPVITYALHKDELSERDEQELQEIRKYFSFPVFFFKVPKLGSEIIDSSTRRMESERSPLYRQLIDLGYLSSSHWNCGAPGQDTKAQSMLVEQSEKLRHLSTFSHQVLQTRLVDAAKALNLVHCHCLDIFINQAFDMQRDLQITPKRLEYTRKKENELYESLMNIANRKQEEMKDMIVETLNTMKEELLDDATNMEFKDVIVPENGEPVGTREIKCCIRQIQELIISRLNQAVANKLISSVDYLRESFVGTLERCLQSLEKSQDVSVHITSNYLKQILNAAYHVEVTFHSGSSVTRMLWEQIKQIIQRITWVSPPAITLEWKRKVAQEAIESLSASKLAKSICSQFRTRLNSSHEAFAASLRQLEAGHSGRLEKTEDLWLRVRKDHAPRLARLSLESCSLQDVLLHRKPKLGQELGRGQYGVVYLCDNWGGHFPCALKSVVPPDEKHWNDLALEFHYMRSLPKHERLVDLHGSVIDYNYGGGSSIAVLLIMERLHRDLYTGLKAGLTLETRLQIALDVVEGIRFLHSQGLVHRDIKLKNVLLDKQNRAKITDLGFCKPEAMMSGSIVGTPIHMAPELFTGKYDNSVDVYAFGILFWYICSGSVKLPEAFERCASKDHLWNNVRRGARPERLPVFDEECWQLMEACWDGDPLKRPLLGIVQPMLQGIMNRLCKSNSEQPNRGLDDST
T6 sequence (P49674 whole entry): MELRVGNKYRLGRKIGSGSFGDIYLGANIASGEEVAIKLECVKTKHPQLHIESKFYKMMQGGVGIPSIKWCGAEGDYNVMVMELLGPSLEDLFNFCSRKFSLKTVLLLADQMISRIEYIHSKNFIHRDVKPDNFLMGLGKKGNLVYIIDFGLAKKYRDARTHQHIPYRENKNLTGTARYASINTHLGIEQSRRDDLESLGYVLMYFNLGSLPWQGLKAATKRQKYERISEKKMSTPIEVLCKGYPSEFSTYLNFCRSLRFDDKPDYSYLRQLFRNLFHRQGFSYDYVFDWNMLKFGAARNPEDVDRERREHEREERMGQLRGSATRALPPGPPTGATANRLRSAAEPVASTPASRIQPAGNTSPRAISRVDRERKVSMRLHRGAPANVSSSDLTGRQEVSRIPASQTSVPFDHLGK
T4 sequence (P49336 whole entry): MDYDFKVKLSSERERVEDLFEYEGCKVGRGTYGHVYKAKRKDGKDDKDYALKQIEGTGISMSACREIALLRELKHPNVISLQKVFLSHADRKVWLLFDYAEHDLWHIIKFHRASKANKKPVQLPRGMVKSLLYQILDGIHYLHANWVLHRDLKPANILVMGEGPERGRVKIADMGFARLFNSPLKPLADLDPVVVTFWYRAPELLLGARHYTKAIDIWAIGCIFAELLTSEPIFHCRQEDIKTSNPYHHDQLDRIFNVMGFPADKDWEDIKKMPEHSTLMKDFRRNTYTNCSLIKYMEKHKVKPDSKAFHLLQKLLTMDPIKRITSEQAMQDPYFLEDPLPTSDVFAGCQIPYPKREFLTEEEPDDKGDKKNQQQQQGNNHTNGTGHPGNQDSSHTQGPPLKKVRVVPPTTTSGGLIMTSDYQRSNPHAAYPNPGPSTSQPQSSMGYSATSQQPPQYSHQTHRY
T7 sequence (Q8TF76 whole entry): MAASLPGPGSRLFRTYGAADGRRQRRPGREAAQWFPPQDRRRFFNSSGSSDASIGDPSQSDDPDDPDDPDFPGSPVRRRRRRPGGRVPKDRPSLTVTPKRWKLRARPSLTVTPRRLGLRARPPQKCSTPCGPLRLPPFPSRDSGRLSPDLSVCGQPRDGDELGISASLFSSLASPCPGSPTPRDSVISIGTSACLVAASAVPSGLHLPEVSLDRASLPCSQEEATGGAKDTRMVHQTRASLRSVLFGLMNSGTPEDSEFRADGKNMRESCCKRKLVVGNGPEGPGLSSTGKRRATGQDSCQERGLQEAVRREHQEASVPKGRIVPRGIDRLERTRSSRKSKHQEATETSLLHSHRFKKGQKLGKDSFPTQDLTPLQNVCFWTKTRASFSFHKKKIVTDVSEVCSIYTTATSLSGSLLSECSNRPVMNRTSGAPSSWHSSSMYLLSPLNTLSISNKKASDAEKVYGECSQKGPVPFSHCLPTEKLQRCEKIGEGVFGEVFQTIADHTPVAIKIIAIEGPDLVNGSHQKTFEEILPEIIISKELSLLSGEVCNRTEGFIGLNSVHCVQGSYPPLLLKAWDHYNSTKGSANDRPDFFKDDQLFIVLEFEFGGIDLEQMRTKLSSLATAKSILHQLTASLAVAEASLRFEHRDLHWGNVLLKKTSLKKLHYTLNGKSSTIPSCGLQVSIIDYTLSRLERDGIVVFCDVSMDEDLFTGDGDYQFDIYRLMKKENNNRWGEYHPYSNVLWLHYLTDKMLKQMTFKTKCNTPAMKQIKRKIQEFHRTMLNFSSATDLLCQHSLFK
T19 sequence (O75582 426-687 limits assumed): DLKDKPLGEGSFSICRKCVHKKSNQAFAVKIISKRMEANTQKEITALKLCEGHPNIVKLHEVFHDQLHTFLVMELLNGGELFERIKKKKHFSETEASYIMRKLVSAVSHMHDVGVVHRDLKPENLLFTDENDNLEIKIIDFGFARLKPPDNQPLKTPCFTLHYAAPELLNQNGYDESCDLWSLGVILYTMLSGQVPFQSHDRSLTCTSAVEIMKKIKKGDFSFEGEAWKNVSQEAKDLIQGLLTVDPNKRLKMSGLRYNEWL
T22 sequence (P29597 897-1176 limits assumed): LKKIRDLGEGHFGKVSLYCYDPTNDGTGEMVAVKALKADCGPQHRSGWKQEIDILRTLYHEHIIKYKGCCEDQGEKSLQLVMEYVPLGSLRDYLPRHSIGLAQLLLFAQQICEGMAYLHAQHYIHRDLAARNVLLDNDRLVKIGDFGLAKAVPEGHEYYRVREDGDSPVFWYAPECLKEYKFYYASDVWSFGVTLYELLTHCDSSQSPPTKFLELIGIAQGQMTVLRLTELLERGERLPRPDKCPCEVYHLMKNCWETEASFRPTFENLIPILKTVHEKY

In the case of `CC(C)(O)C#Cc1ccc2[nH]c3c(c2c1)-c1nc(N)ncc1CCC3` [AMG28, reference compound], in assay [1], the “MAP4K5 % control at 1000nM / DiscoverX PoC value” is recorded as 6.6 % control. In addition, the “RIPK5 % control at 1000nM / DiscoverX PoC value” in assay [2] is on record as 2.2 % control.

Regarding `CC(C)(O)C#Cc1ccc2[nH]c3c(c2c1)-c1nc(N)ncc1CC3` [Compound 1], the “CDK11 % control at 1000nM” value in assay [3] was determined as 4.7 % control. In assay [4], the “CDK8 % control at 1000nM” value was 4.8 % control. Besides, the “CHEK2 (CHK2) % control at 1000nM / DiscoverX PoC value” in [5] worked out at 7.9 % control. The “CSNK1E % control at 1000nM / DiscoverX PoC value” in assay [6] was 6.2 % control. In [7], the “HASPIN % control at 1000nM” value is recorded as 0.3 % control.

Take `CC(C)(O)C#Cc1ccc2[nH]cc(-c3ccnc(N)n3)c2c1` [Compound 3]: the “AURKB % control at 1000nM” value in [8] worked out at 3.7 % control. In addition, the “BRAF(V600E) % control at 1000nM” value in assay [9] is reported as 6.5 % control. Moreover, in assay [10], the “CDC2L1 % control at 1000nM” value is recorded as 4.3 % control. Further, the “CDC2L2 % control at 1000nM” value in assay [11] was determined as 6.6 % control. In addition, in [12], the “GRK2 % control at 1000nM” value is 9.1 % control. Further, the “HIPK1 % control at 1000nM” value in assay [13] is reported as 9.4 % control. The “JAK3(JH1domain-catalytic) % control at 1000nM” value in assay [14] came to 1.8 % control. Further, the “NIK % control at 1000nM” value in assay [15] was 9.4 % control. For the same compound, the “PFCDPK1(P.falciparum) % control at 1000nM” value in assay [16] is listed as 7.8 % control. Besides, in [17], the “PRKD2 % control at 1000nM” value amounted to 8.3 % control. In addition, the “PRKD3 (PKD3) % control at 1000nM / DiscoverX PoC value” in [18] is recorded as 1.3 % control. For the same compound, in assay [19], the “RPS6KA5(Kin.Dom.2-C-terminal) % control at 1000nM” value was 8.9 % control. Also, the “SNARK % control at 1000nM” value in assay [20] is reported as 1.7 % control. In addition, the “TSSK3 % control at 1000nM / DiscoverX PoC value” in assay [21] is reported as 8.1 % control. Besides, the “TYK2(JH1domain-catalytic) % control at 1000nM” value in [22] amounted to 6.3 % control.
